Measurements: BindingDB's records for doi:10.1016/j.bmc.2016.05.005 (University of Catania, 2016)

Tests used:
[1] = Agonist activity at MOR in Dunkin-Hartley guinea pig ileum assessed as inhibition of EFS-induced contractions incubated for 60 mins
[2] = Antagonist activity at DOR in CD1 mouse vas deferens assessed as pEC50 for DPDPE-induced inhibition of EFS-evoked contractions at 1 uM incubated for 60 mins

Compound | EC50 [1] | EC50 [2]
C[C@H]1[C@H]2Cc3ccc(O)cc3[C@]1(C)CCN2CCC(=O)Nc1cccc2ccccc12 | 50.1 mM | 7.94 µM
C[C@H]1[C@H]2Cc3ccc(O)cc3[C@]1(C)CCN2CCC(=O)Nc1ccccc1 |  | 126 µM
